Measured values as given in patent US6338963B1, “Use of carbon monoxide dependent guanylyl cyclase modifiers to stimulate neuritogenesis” (NeoTherapeutics, Inc., priority 1994, dated 2002).

Legend:
[1] = test system: S100β protein; assay: S100β protein release from rat cultured astrocytes (ELISA); assay type: cell-based; details: for release of S100β protein from astrocytes: exposure for 24 hours
Procedure: The S100β protein was measured by using an ELISA as described in A. Aurell et al., “The S-100 Protein in Cerebrospinal Fluid: A Simple ELISA Method,” J.Neurol. Sci. 89: 157-164 (1989).
(§1) The NGF and S100β protein were measured by removing the cultured medium for the ELISA assays at each indicated time point.

[2] = test system: NGF mRNA; assay: Northern/slot blot of neurotrophin mRNA from astrocytes: NGF; assay type: cell-based, NIH Swiss mice; parameters: key to NGF mRNA: The conditions which produced a detectable amount of each of the neurotrophin mRNAs are indicated by a “+”; a “++” indicating that at least twice the detectable amount was present; Those blots which were negative are indicated by a “−”; details: for NGF mRNA: 24 hours
Procedure: Induction of neurotrophin mRNA was determined by northern blot analysis of astrocytes cultured with AIT-082, NGF, or both. The cells were harvested and RNA extracted at 24 hours after treatment.
More particularly, astrocytes from the cerebral cortex of NIH Swiss mice (Harlan) were isolated. Briefly, newborn pups (0-24 hours) were decapitated. Their brains were removed under aseptic conditions and were placed in modified Dulbecco's medium (DMEM) containing 20% heat-inactivated horse serum (Hyclone) (“complete medium”). The neopallium was then dissected from each cerebral hemisphere and minced into 1 mm cubes.
The astrocytes were then isolated by mechanical dissociation. The cubes were vortexed at maximum speed for one minute. The cell suspension was then passed first through 75 mm Nitex then through 10 mm Nitex. The resulting cell suspension was diluted in complete medium to a final concentration of one brain per 10 ml of complete medium. Ten milliliters of the diluted cell suspension was added to each 100 mm Falcon tissue culture plate (Fisher). After 3 days the medium was replaced with 10 ml fresh complete medium and subsequently was replaced twice weekly with DMEM containing 10% heat inactivated horse serum (“growth medium”). After two weeks in culture the astrocytes formed a confluent monolayer.
For RNA extraction, astrocytes were trypsinized. The astrocytes were then replated onto 100 mm PORN coated plates at a cell density of 10^6 cells per plate (10 ml growth medium). After 2 hrs PBS, guanosine (Guo), or GTP at 10 mM were added to the appropriate plates. Total RNA was harvested from 1.5×10^7 cells for each treatment, 4 and 24 hrs after treatment using TRIzol reagent and supplier protocol (GIBCO BRL/Life Technologies, Inc.). For slot blots, total RNA was bound to Hybond-N filters (Amersham/United States Biochemicals) as described in Transfer and Immobilization of Nucleic Acids and Proteins to S & S Solid Supports (S and S Protocols: Schleicher & Schuell, New Hampshire, USA). Northern blots were also performed using […] total RNA from each sample. These were electrophoresed in 1% agarose gels containing formaldehyde and blotted onto Hybond-N filters according to S and S protocols.
The blots were probed with ^32P-labeled cDNA (NGF, NT-3 and BDNF probes) or oligonucleotide probe (FGF-2) by hybridization in Piperazine-N,N′-bis-(2-ethanesulfonic acid) (PIPES) buffer (50 mM PIPES, pH 6.8; 50 mM NaH2PO4; 0.1 M NaCl; 5% SDS and 1 mM EDTA) overnight at 50° C. […] Various concentrations ([…] of total RNA), as determined by spectrophotometry, of each sample were blotted and probed so that quantification could be done after insuring a linear film response. Quantification was performed using MCID Image Analysis (St. Catherine's, Ontario, Canada). […]

[3] = test system: cGMP levels in PC12 cells; assay: cGMP levels in PC12 cells (radioimmunoassay); assay type: cell-based, rat; details: NGF-primed PC12 cells
Procedure: Initially, PC-12 cells were primed with 40 ng/ml NGF for 3 days in low serum medium (1.5% horse serum+5% fetal calf serum). Cells were seeded onto assay plates in low serum medium containing 40 ng/ml NGF and incubated for 1 hour. The medium was changed to low arginine medium (80 μM) with no serum and NGF and papaverine ([…]) where indicated. Test compounds were added for the indicated time and the reaction was stopped by adding 5% TCA containing 10,000 dpm of ^3H-cGMP. cGMP was assayed by the radioimmunoassay method of Maurice (Mol. Pharmacol. 37: 671-681, 1990). TCA was purified by adding powdered charcoal (5 g) and filtering the mixture through Whatman #1 paper. This removed contaminants in the TCA that otherwise interfere with the radioimmunoassay (RIA) of cGMP.
It was necessary to purify the cGMP from cAMP and other contaminants before radioimmunoassay since these other materials can interfere with the assay. Briefly, the TCA solution was applied to Dowex columns (50W-8X, 200-400 mesh) and eluted. A neutral alumina column was then placed under each Dowex column. The cGMP was eluted from the Dowex columns into neutral alumina columns by adding 4 mL of 0.05 M HCl to each Dowex column. The neutral alumina columns were then sequentially rinsed with 2 ml of HCl, 4 mL water and finally with 0.2 M sodium acetate (pH 6.2). The cGMP collected for the RIA eluted in 1 ML of sodium acetate with a recovery between 50-65%. The cGMP was assayed using a Dupont RIA kit.

[4] = test system: NGF; assay: NGF release from rat cultured astrocytes (ELISA); assay type: cell-based; details: for release of NGF from astrocytes: exposure for 24 hours
Procedure: The dose response for AIT-082 and guanosine on nerve growth factor and S100β protein release from rat culture astrocytes is shown in FIG. 30. NGF was assayed by a double-site ELISA, using a monoclonal anti-NGF antibody, coupled or not to β-galactosidase according to the method of I. D. Laviada et al., “Phosphatidylcholine-Phospholipase C Mediates the Induction of Nerve Growth Factor in Cultured Glial Cells,” FEBS Lett. 364: 301-304 (1995).
as §1
NGF and TGFβ2 levels were assayed in the culture medium of the astrocytes by specific ELISA assays using kits from Roche (Germany) and Promega (USA) respectively. NGF basal levels were 56.3±3.2 pg/ml. TGFβ2 levels were 9.1±0.06 pg/ml.
In FIG. 61, the dose-response curves of NGF and TGFβ2 release from rat cultured astrocytes as the result of exposure to AIT-082 are shown.

| SMILES | release of S100β protein from astrocytes [1] | NGF mRNA in astrocytes ([2]; guanosine, 4 hours after addition) | cGMP in PC12 cells [3] | release of NGF from astrocytes [4] | time of peak release of S100β protein ([1]; AIT-082 100 μM) | NGF mRNA ([2]; AIT-082 100 mM) | NGF mRNA ([2]; AIT-082 + NGF (40 ng/ml)) | time after exposure at which release of NGF was enhanced ([4]; AIT-082 100 μM) | time of maximum release of NGF ([4]; AIT-082 100 μM) | increase of NGF production as compared to a control ([4]; rat cultured astrocytes) |
| --- | --- | --- | --- | --- | --- | --- | --- | --- | --- | --- |
| Nc1nc2c(ncn2[C@@H]2O[C@H](CO)[C@@H](O)[C@H]2O)c(=O)[nH]1 [guanosine] | dose-dependent increase | increased | increased intracellular cGMP | dose-dependent increase |  |  |  |  |  |  |
| O=C(CCn1cnc2c(=O)[nH]cnc21)Nc1ccc(C(=O)O)cc1 [AIT-082, N-4-carboxyphenyl-3-(6-oxohydropurin-9-yl)propanamide] | dose-dependent increase |  | increased the production of cGMP | dose-dependent increase | peaked within three hours | ++ | + | 12 h | 24 h | about 2.5 fold |
